This is an account of results in ChEMBL document CHEMBL1201862, “PubChem BioAssay data set” (2004).

Molecules are shown by their SMILES.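 Step 1: Grow cells in 96-well plates. Step 2: Expose to compound for 48 hours at 5 concentrations. Step 3: Interpolate endpoints linearly; if unreached, use highest concentration. GI50 is the concentration that inhibits growth by half.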 Calls of active or inactive are those of the source. No stated cut-off is given here; in the data, active = GI50 up to about 1.1 µM and inactive = higher.

Among the test systems are SW-620; HT-29; MOLT-4; UO-31; RXF 393; CCRF-CEM; CAKI-1; HOP-92; UACC-257; TK-10; NCI-H460; OVCAR-5; SNB-75; IGROV-1; NCI-H226; SK-MEL-2.
Holding throughout (test): DTP human tumour cell line panel, 48 h

Take `O=C(CN1CCCCC1)N1CCc2c([nH]c3ccccc23)C1c1cccnc1` (stereo not given): the GI50 is > 100 µM (inactive) with SW-620; > 100 µM (inactive) with HT-29; > 100 µM (inactive) in the test on MOLT-4; 48.8 µM (inactive) with UO-31; 40.5 µM (inactive) with RXF 393; > 100 µM (inactive) in the test with CCRF-CEM. Also, the GI50 in the test on CAKI-1 is > 100 µM (inactive); with HOP-92, 34.6 µM (inactive); with UACC-257, > 100 µM (inactive); with TK-10 it was > 100 µM (inactive); with NCI-H460, > 100 µM (inactive); with OVCAR-5 it was > 100 µM (inactive). Moreover, the GI50 in the test on SNB-75 and in the test on IGROV-1 was > 100 µM (inactive) each time.
As to `COC(=O)C1=C(C)N(NC(N)=O)C(C)(O)C12CCOC2=O` (stereo not given), the GI50 in the test on NCI-H226, in the test with SW-620, in the test on HT-29, with MOLT-4, in the test on UO-31 and in the test on CCRF-CEM was > 100 µM (inactive) in each case. For the same molecule, the GI50 in the test on CAKI-1, with HOP-92, in the test on UACC-257, in the test on TK-10, in the test on NCI-H460 and in the test with OVCAR-5 was > 100 µM (inactive) in each case. Moreover, the GI50 with SK-MEL-2 and in the test with IGROV-1 was > 100 µM (inactive) throughout.
On to `CC12CCC(C)(c3cc(O)c(O)cc31)c1cc(O)c(O)cc12`, for which the GI50 is 15.7 µM (inactive) in the test with SW-620; 14.7 µM (inactive) in the test with HT-29; 15.1 µM (inactive) in the test on MOLT-4; 19.8 µM (inactive) in the test on UO-31; 16.1 µM (inactive) in the test with RXF 393; 2.92 µM (inactive) in the test with CCRF-CEM. The GI50 is 11.2 µM (inactive) in the test on CAKI-1; 10.7 µM (inactive) in the test on HOP-92; 15.3 µM (inactive) in the test on UACC-257; 19.8 µM (inactive) with TK-10; 18 µM (inactive) in the test on NCI-H460; 22.3 µM (inactive) with OVCAR-5. In addition, the GI50 in the test with SK-MEL-2 was 32.6 µM (inactive); in the test on SNB-75, 11.6 µM (inactive); in the test on IGROV-1, 20.3 µM (inactive).
`O=C1CCCCC/C=C2/CC[C@H](Sc3ccccc3)[C@@H]12`: the GI50 was > 100 µM (inactive) with NCI-H226; > 100 µM (inactive) in the test on SW-620; > 100 µM (inactive) with HT-29; 31.4 µM (inactive) in the test with MOLT-4; 50 µM (inactive) with UO-31; 37.8 µM (inactive) in the test with RXF 393. The GI50 with CCRF-CEM was 6.27 µM (inactive); in the test with UACC-257, > 100 µM (inactive); with TK-10, 49.9 µM (inactive); in the test with NCI-H460 it was 94.4 µM (inactive); in the test on SK-MEL-2, 71.9 µM (inactive); in the test with SNB-75 it was 36.8 µM (inactive).
On to `Cn1nc(-c2ccccc2)c(C(=O)/C=C/c2ccc(Cl)cc2)c(N2CCCCC2)c1=O`, for which the GI50 is 3.48 µM (inactive) in the test on SW-620; 1.45 µM (inactive) in the test on HT-29; 1.53 µM (inactive) in the test with MOLT-4; 1.65 µM (inactive) in the test on UO-31; 1.32 µM (inactive) in the test on RXF 393; 2.18 µM (inactive) in the test with CCRF-CEM. For the same molecule, the GI50 is 0.826 µM (active) with CAKI-1; 1.91 µM (inactive) in the test with HOP-92; 3.72 µM (inactive) in the test with TK-10; 2.52 µM (inactive) in the test with NCI-H460; 2.15 µM (inactive) with IGROV-1.
As to `CC1(O)CC2C(CC1SCCO)C2(C)C` (stereo not given), the GI50 in the test with HT-29, with MOLT-4, in the test on UO-31, in the test on CCRF-CEM, in the test with HOP-92 and with UACC-257 was > 100 µM (inactive) each time. The GI50 in the test on TK-10, in the test with NCI-H460, with OVCAR-5, with SK-MEL-2, in the test on SNB-75 and with IGROV-1 was > 100 µM (inactive) in each case.
As to `IC[P+]1(c2ccccc2)CCCC1`, the GI50 with NCI-H226 is 24.2 µM (inactive); with SW-620 it was > 100 µM (inactive); in the test with HT-29, 37.3 µM (inactive); with MOLT-4, 72.9 µM (inactive); in the test with UO-31, > 100 µM (inactive); in the test on RXF 393 it was 76.7 µM (inactive). Also, the GI50 was 54.2 µM (inactive) with CCRF-CEM; 52.4 µM (inactive) with UACC-257; 47.3 µM (inactive) in the test with TK-10; 31.9 µM (inactive) with NCI-H460; > 100 µM (inactive) with OVCAR-5; > 100 µM (inactive) with SK-MEL-2. Also, the GI50 with SNB-75 was 26.2 µM (inactive); in the test with IGROV-1, > 100 µM (inactive).
For the molecule `COc1ccccc1NC(=O)C1=C(C)NC(C)=C(C(=O)Nc2ccccc2OC)C1c1ccccc1F`, the GI50 is > 100 µM (inactive) in the test with NCI-H226; > 100 µM (inactive) in the test with SW-620; 91.4 µM (inactive) with HT-29; 49.2 µM (inactive) in the test on MOLT-4; 62.7 µM (inactive) in the test on UO-31; 54.3 µM (inactive) in the test on CCRF-CEM. In addition, the GI50 was > 100 µM (inactive) in the test on CAKI-1; 79.3 µM (inactive) with HOP-92; > 100 µM (inactive) in the test on UACC-257; > 100 µM (inactive) in the test on TK-10; 67.9 µM (inactive) in the test on NCI-H460; > 100 µM (inactive) in the test on OVCAR-5. Besides, the GI50 in the test with SK-MEL-2 is 55.8 µM (inactive); with SNB-75 it was 18 µM (inactive); with IGROV-1, > 100 µM (inactive).
For `c1ccc(OCCSCCCCCCCCCCSCCOc2ccccc2)cc1`, the GI50 in the test on NCI-H226 was > 100 µM (inactive); in the test on SW-620, 54.2 µM (inactive); in the test with MOLT-4 it was > 100 µM (inactive); in the test with UO-31, 65.3 µM (inactive); in the test on RXF 393, > 100 µM (inactive); in the test on CCRF-CEM, > 100 µM (inactive). Moreover, the GI50 with UACC-257 is > 100 µM (inactive); in the test on TK-10, 16.9 µM (inactive); with NCI-H460, 37.8 µM (inactive); in the test with OVCAR-5, > 100 µM (inactive); in the test on SK-MEL-2, > 100 µM (inactive); with SNB-75, > 100 µM (inactive). For the same molecule, the GI50 with IGROV-1 is > 100 µM (inactive).
Take `Cc1c(C(=O)/C=C/c2ccccc2Cl)[n+]([O-])c2ccccc2[n+]1[O-]`: the GI50 in the test with NCI-H226 is 15.3 µM (inactive); in the test with SW-620, 10.3 µM (inactive); with HT-29, 17.3 µM (inactive); in the test with MOLT-4 it was 16 µM (inactive); in the test on UO-31, 19.1 µM (inactive); in the test on CAKI-1, 3.24 µM (inactive). Further, the GI50 was 15.3 µM (inactive) in the test on HOP-92; 13.4 µM (inactive) with UACC-257; 10.3 µM (inactive) in the test with NCI-H460; 20.9 µM (inactive) in the test on OVCAR-5; 13.6 µM (inactive) with SK-MEL-2; 16.4 µM (inactive) in the test with SNB-75. Moreover, in the test on IGROV-1, the GI50 is 15 µM (inactive).
For the molecule `COc1ccc(-c2cc(O)c3cc4c(cc3n2)OCO4)c(OC)c1`, the GI50 in the test with SW-620 was 47.3 µM (inactive); in the test with HT-29, 43 µM (inactive); with MOLT-4 it was 30.2 µM (inactive); in the test with UO-31 it was 57.3 µM (inactive); in the test with CCRF-CEM, 34.4 µM (inactive); with CAKI-1, > 100 µM (inactive). The GI50 with HOP-92 is 82 µM (inactive); with TK-10, > 100 µM (inactive); with NCI-H460, 40.2 µM (inactive); with SK-MEL-2 it was 55.1 µM (inactive); with SNB-75, 4.4 µM (inactive); in the test with IGROV-1, > 100 µM (inactive).

As a reminder, the GI50 is the concentration that inhibits growth by half.
